Tested on: E. coli
Assay: In-vitro E. coli killing assay with spleen monocytes/macrophages
Format: cell-based, mice
Conditions: monocytes/macrophages from spleens 24 h after CNO; VTA-activated vs control; intact SNS
Experimental: To evaluate the anti-bacterial efficiency of the spleen monocytes, an in-vitro killing assay was performed. Splenocytes from VTA-activated and control mice were extracted 24 hour after IP injection of CNO. Splenocytes underwent a monocyte enrichment negative selection procedure using the EasySep mouse monocyte enrichment kit (Stem-Cells Technologies, Vancouver, Canada). Enriched monocytes co-cultured with E. coli bacteria at a 12:1 ratio, in RPMI medium containing 10% foetal bovine serum, and incubated at 37° C. for 4 h. Monocytes were then lysed by adding 0.1% Triton X-100 (Sigma-Aldrich, US), and the lysates were diluted ×1000 in PBS. The diluted media were plated onto agar petri dishes, which were then incubated overnight at 37° C. Twelve hours later, the number of remaining bacteria colonies was counted.
To test for functional changes in immune activity following VTA activation, monocytes/macrophages were assayed (the most profound changes in the CyTOF screen). Due to the increase in CD206 levels on these cells, their phagocytic capacity was examined. Cd11b+, Ly6G-cells were isolated from the spleens of both VTA-activated and control mice 24 h following CNO injection. Cells were cultured with E. coli for four hours and then lysed.
The remaining media was plated on agar plates and counted the remaining bacteria colonies. […]

## C[N+]1([O-])CCN(C2=Nc3cc(Cl)ccc3Nc3ccccc32)CC1 [CNO, clozapine-N-oxide]
  number of remaining E. coli colonies: significant decrease
